According to PubChem BioAssay (NCI):
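Interpolation was linear, between the two tested concentrations surrounding the appropriate level; five concentrations were tested over 48 hours in 96-well plates. GI50: concentration for 50% inhibition of growth. The concentration for full growth arrest is given as TGI.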

Experiments:
Assay in all cases: NCI anticancer screen, dose series, 48 h
[1] = system: OVCAR-4 ovarian
[2] = system: U251 CNS
[3] = system: NCI-H460 lung
[4] = system: MDA-MB-231 breast
[5] = system: SNB-19 CNS
[6] = system: T-47D breast
[7] = system: OVCAR-8 ovarian
[8] = system: SN12C renal
[9] = system: M14 melanoma
[10] = system: K-562 leukemia

Structure (SMILES) | GI50 [1] [µM] | TGI [1] [µM] | GI50 [2] [µM] | TGI [2] [µM] | GI50 [3] [µM] | TGI [3] [µM] | GI50 [4] [µM] | TGI [4] [µM] | GI50 [5] [µM] | TGI [5] [µM] | GI50 [6] [µM] | TGI [6] [µM] | GI50 [7] [µM] | TGI [7] [µM] | GI50 [8] [µM] | TGI [8] [µM] | GI50 [9] [µM] | TGI [9] [µM] | GI50 [10] [µM] | TGI [10] [µM]
COC(=O)C1=CN(CC2=CC(=O)C(C)=CC2=O)C=C(C(=O)OC)C1c1cccc(OC)c1OC | 12 | > 60.5 | 18.6 | 50.2 | 19.7 | > 70.7 | 11.8 | 28.9 | > 43.1 | > 70 | 46.2 | > 94.4 | 16.2 | 42.8 | 13.8 | 34 | 15.3 | 29.4 | 3.62 | 26
N#C/C(=C\c1cn(-c2ccccc2)c2ccccc12)C(=O)O | 39.1 | > 100 | 35 | > 100 | 30 | > 100 | 44.2 | > 100 | 54.3 | > 100 | 29.6 | > 100 | 44.6 | > 100 | 51.1 | > 100 | 61.2 | > 100 | 71.7 | > 100
Cc1ccc(NC(=O)c2ccnc(C(F)(F)F)c2)cc1-c1cc(OCCO)nc(N2CCOCC2)c1 | 3.95 | 21.5 | 4.7 | 28.8 | 2.81 | 13.5 | 0.688 | 17.5 | 3.64 | 19.2 | 3.31 | > 100 | 4.08 | > 100 | 3.31 | 28.6 | 0.63 | 5.25 | 1.86 | 41.6
CC1C(=O)N=C2C(=CN(Cc3ccccc3)c3ccccc32)C(=O)N1C (stereo not given) |  | > 100 |  | > 100 |  | > 100 |  | > 100 |  | > 100 |  | > 100 |  | > 100 |  | > 100 |  | > 100 |  | > 100
COc1ccc(C2CC(=O)Nc3c2c(C)nn3-c2nc3ccccc3[nH]2)cc1 (stereo not given) | 3.71 | > 59.1 | 2.56 | 7.04 | 2.39 | 5.89 | 2.25 | 5.3 | 4.72 | > 100 | 3.92 | > 41.9 | 3.76 | > 100 | 3.28 | > 53.7 | 2.54 | 7.12 | 2.9 | > 35.5
O=C(CNC(=O)c1cccc2ccccc12)Nc1ccccc1Oc1cccc(O)c1 | > 25 | > 25 | 8.41 | > 25 | 5.82 | > 25 | 17.6 | > 25 | 8.73 | > 25 | 9.84 | > 25 | 11.4 | > 25 | > 25 | > 25 | 1.56 | > 25 | 1.05 | > 25
CCN(CC)c1ccc(/C=N/NC(=O)c2ccc(Nc3ccnc(C(F)(F)F)c3)cc2)c(O)c1 | 0.152 | > 100 | 0.145 | > 37.6 | 0.212 | 1.48 | 0.396 | 3.97 | 0.39 | > 73.6 | 0.332 | 3.7 | 0.322 | > 33 | 0.395 | > 100 | 0.25 | 1.42 | 0.147 | 3.47
Clc1nc(Cl)c2ncn(C/C=C\Cn3cnc4c(Cl)nc(Cl)nc43)c2n1 | 1.79 | 3.26 | 3.5 | 10.6 | 3.24 | 11.2 | 2.72 | 5.95 | 3.13 | 10.1 | 0.951 | 2.79 | 2.02 | 6.39 | 3.01 | 9.71 | 2.15 | 4.19 | 3.1 | > 100
[N-]=[N+]=Nc1ncc(-c2ccc(C(F)(F)F)cc2)c(NC2CCCCCC2)n1 | > 10 | > 10 | > 10 | > 10 | > 10 | > 10 | > 10 | > 10 | > 10 | > 10 | > 10 | > 10 | > 10 | > 10 | > 10 | > 10 | > 10 | > 10 | > 10 | > 10
O=C(O)CC(Cc1ccc2c(c1)OCO2)C(=O)O (stereo not given) |  | > 100 |  | > 100 |  | > 100 |  | > 100 |  | > 100 |  | > 100 |  | > 100 |  | > 100 |  | > 100 |  | > 100
CCN(CC)CCC(=O)Nc1cccc2c1C(=O)c1c(c(O)c3ccccc3c1O)C2=O | 4.05 | 23.1 | 10.2 | 22.7 | 13.3 | 81.3 | 9.64 | 26.1 | 16.8 | 44.8 | > 100 | > 100 | 10.5 | 26.9 | 21.5 | > 100 | 35.4 | > 100 | 2.67 | 13.8
CC(=O)OCC(=O)[C@@]1(O)[C@H](C)C[C@H]2[C@@H]3C=C(C)C4=Cc5c(cnn5-c5ccc(F)cc5)C[C@]4(C)[C@H]3[C@@H](O)C[C@@]21C | 2.12 | 11.5 | 1.25 | 3.27 | 1.47 | 3.16 | 2.56 | 6.43 | 2.03 | 6.27 | 2.75 | 8.72 | 2.58 | 11.3 | 1.89 | 7.08 | 1.71 | 3.5 | 1.15 | > 23.2
COC(=O)Nc1ccc2ccc3c(NC(=O)OC)ccc4ccc1c2c43 (tested in a mixture with another compound) | 15.7 | > 50 | 12 | > 50 | 4.79 | > 50 | 7.95 | 35.7 | 13.1 | > 50 | 9.23 | 35.6 | 14.3 | > 50 | 18.9 | > 50 | 3.93 | > 50 | 3.29 | > 50
O=[N+]([O-])c1cccc(-c2nc3sccn3c2-c2ccnc(NCCCNS(=O)(=O)c3ccc(F)cc3)n2)c1 | 1.65 | 6.55 | 3.73 | > 100 | 2.94 | > 100 | 4.98 | > 100 | 4.01 | > 100 | 0.303 | 2.82 | 1.74 | 22.2 | 2.61 | > 100 | 2.72 | > 100 | 1.62 | > 100
